Measured values from article PMC12322948 (The Journal of Organic Chemistry, 2025).
Where two headings read alike, the source gives them in different places.

Target: T1, ACE2 (Homo sapiens, UniProt Q9BYF1)
T1 construct: purchased Abcam/BioVision ab273373
Assay: ACE2 inhibition assay (Abcam ACE2 Inhibitor Screening Kit, fluorogenic MCA peptide substrate)
Format: biochemical
Details: for pIC50 exp-MLN – pIC50 exp: difference between experimental pIC50 of MLN-4760 and of the compound
Method: Having validated our radiosynthetic approach to (S,S)-[^18F]1 and with various fluorinated MLN-4760 analogues in hand, we next looked to evaluate the inhibitory activity of the analogues using a commercially available ACE2 inhibition assay kit (Table ) (Figure ). […] Consequently, the pIC50 values of the tested compounds were evaluated relative to our experimentally measured value for MLN-4760 in order to identify lead candidates for radiolabeling. […] The difference between the in vitro pIC^exp 50 for MLN-4760 and the pIC^exp 50 values of (S,S)-1–(S,S)-4 aligned with the difference in the in silico predicted pIC50 (pIC^pr 50) of MLN-4760 and pIC^pr 50 values of (S,S)-1–(S,S)-4. Specifically, these pIC50 differences for all 3,5-disubstituted benzyl analogues (S,S)-2, (S,S)-3, and (S,S)-4 were smaller than for the para-substituted benzyl analogue (S,S)-1, providing support for the pIC^pr 50 values (Table ). Consequently, compounds (S,S)-2, (S,S)-3 and (S,S)-4, with pIC50 values in the same range as MLN-4760, emerge as priority targets for future ACE2 PET radioligand development.
The assay for the inhibition of ACE2 was conducted using a commercially available ACE2 Inhibitor Screening Kit, purchased from Abcam (ACE2 Inhibitor Screening Kit, ab273373; Abcam/BioVision), in 96-well microplates (half area, black, flat bottomed, Greiner Bio-One International) at ambient temperature (set to 23.5 °C), total volume 100 µL. The assay employs a synthetic MCA-based peptide substrate that, upon cleavage by active ACE2, releases a fluorophore measurable by a fluorescence microplate reader (Ex/Em = 320/420 nm). Compounds to be tested were serially diluted with dilution buffer from a stock solution (5 mg/mL) in dimethyl sulfoxide (DMSO) to different concentrations.
Diluted ACE2 enzyme solution was prepared by diluting ACE2 enzyme (20 µL, provided in the kit) with dilution buffer (198 µL, provided in the kit ) and was aliquoted and stored at -20 °C.
Diluted ACE2 enzyme solution (2 µL) was added to assay buffer (48 µL ) to make ACE2 enzyme working solution. Inhibitor solution was prepared by adding the cont rol inhibitors (5 µL, 0.5 mM) to dilution buffer (50 µL) and was aliquoted and stored at -20 °C. The ACE2 substrate was aliquoted and stored at -20 °C. ACE2 substrate solution was prepared by diluting substrate (2 µL) […]
Five controls were prepared: enzyme control (positive control, inhibition free reaction), inhibitor control (negative control to test inhibition), background control (to remove fluorescence from the background), test compound control (to test whether the test compounds react with the substrate) and vehicle control (to test the effect of solvent DMSO on ACE2 enzyme activity).
For enzyme control, inhibitor control and vehicle control, and test compounds, ACE2 enzyme working solution (50 µL) was added. For background control and test compound control, assay buffer (50 µL) was added. Then, assay buffer (10 µL) was added to enzyme control and background control. DMSO solution in assay buffer (10 µL) was added to vehicle control. Inhibitor solution (10 µL) was added to inhibitor control. Test compound solution (10 µL) was added to the test compound control. For the test compound, compound solution (10 µL) with the different concentrations were added. An example of preparation can be found on Table S3.1. The mixture […]
and substrate were incubated separately at room temperature for 15 minutes before substrate (40 µL) was added to each test and mixed evenly to start the reaction. Fluorescence was monitored over 61-minutes (excitation = 320 nm, emission = 420 nm) using a Tecan microplate reader (Infinite® 200 PRO NanoQuant Microplate Reader). Fluorescence spectra were measured using the fluorescence intensity mode (excitation = 320 nm).
Table S4.1. Preparation of control and test compounds
Test Component 1 Component 2 Component 3
Vehicle control 50 µL enzyme1 10 µL DMSO (0.1 mM) 40 µL substrate2
Background control 50 µL assay buffer 10 µL assay buffer 40 µL substrate […]

[1] = Abcam ACE2 inhibitor screening kit, read-out: pIC50 exp (experimental pIC50) (converted)

T1 sequence (Q9BYF1 18-805): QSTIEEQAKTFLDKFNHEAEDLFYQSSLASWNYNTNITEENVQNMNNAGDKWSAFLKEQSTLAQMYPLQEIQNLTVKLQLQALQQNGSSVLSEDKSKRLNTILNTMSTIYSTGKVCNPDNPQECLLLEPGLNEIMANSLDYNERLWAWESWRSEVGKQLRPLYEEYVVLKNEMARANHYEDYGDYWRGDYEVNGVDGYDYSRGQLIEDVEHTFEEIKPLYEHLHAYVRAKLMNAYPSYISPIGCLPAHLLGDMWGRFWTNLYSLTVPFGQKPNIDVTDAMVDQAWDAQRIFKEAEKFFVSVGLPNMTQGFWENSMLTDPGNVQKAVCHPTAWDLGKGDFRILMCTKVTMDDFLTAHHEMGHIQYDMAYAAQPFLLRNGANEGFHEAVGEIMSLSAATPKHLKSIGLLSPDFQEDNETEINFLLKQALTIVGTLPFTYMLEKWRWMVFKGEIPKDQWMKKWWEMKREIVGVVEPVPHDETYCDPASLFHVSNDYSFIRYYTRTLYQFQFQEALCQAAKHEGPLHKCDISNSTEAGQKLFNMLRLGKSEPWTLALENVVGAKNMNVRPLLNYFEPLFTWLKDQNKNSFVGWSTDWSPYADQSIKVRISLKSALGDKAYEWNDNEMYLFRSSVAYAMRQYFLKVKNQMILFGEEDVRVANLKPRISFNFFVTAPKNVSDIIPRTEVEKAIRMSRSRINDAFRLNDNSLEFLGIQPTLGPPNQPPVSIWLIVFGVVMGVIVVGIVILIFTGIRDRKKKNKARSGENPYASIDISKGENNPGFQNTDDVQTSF

Row | Compound | IC50 [1] | pIC50 exp-MLN – pIC50 exp | IC50
1 | CC(C)C[C@H](N[C@@H](Cc1cncn1Cc1ccc(F)cc1)C(=O)O)C(=O)O [(S,S)-1] | 204 nM | 0.85 | –
2 | Cc1cc(F)cc(Cn2cncc2C[C@H](N[C@@H](CC(C)C)C(=O)O)C(=O)O)c1 [(S,S)-2] | – | 0.36 | 66.1 nM
3 | COc1cc(Cn2cncc2C[C@H](N[C@@H](CC(C)C)C(=O)O)C(=O)O)cc(OCCF)c1 [(S,S)-4] | – | 0.27 | 53.7 nM
4 | CC(C)C[C@H](N[C@@H](Cc1cncn1Cc1cc(Cl)cc(Cl)c1)C(=O)O)C(=O)O [MLN-4760, (S,S)-2-(1-carboxy-2-(3-(3,5-dichlorobenzyl)-3H-imidazol-4-yl)-ethylamino)-4-methylpentanoic acid, reference compound] | – | 0.00 | 28.8 nM
5 | CC(C)C[C@H](N[C@@H](Cc1cncn1Cc1cc(F)cc(Cl)c1)C(=O)O)C(=O)O [(S,S)-3] | – | –0.07 | 24.5 nM
6 | CC(C)C[C@@H](N[C@@H](Cc1cncn1Cc1ccc(F)cc1)C(=O)O)C(=O)O [(S,R)-1] | 40700 nM | 3.15 | –
